The values that follow come from patent US8853274B1, “Compositions and methods for targeting glioblastomas cells” (Vanderbilt University, priority 2011, dated 2014).

Molecules are shown by their SMILES.

What all share (type): cell-based, human
The subject of one test is T4302 CD133+ cells. The test is described as follows: Caspase 3/7 activation (apoptosis). The following applies: 100 nM, day 3. As for the experimental part:
(A) T4302 CD133+ GBM stem cells were enriched from freshly collected subcutaneous xenograft tumors, cultured in stem cell media. Cells were left unirradiated or irradiated at 3 Gy. The relative mRNA levels of Hes2 were determined by quantitative real-time PCR at the time points as indicated. (B) T4302 CD133+ cells were pre-treated with vehicle (DMSO), 2 μM DAPT or 0.5 μM L685,458 for 4 hours and irradiated as indicated. Cells were then plated to form neurospheres. Fourteen days after plating, neurospheres containing more than 50 cells were scored. To determine the surviving fractions, the number of neurosphere at each radiation dose was normalized to that of the corresponding sham-irradiated group. (C) T4302 CD133+ cells were treated with GSIs±radiation as indicated. Relative caspase 3/7 activities were determined by normalizing caspase activities to the corresponding cell numbers. (D), (E) T4302 CD133+ cells were infected with lentivirus directing expression of non-targeting shRNA or shRNAs specific to Notch1 or Notch2 (KD-Notch1 or KD-Notch2), and selected with puromycin. Relative caspase 3/7 activities and clonogenic survival were determined as described above. (F) T4302 CD133+ cells were infected with control lentivirus or lentivirus directing expression of NICD2. Clonogenic survival was determined as described above. *: p<0.05 by Student's t-test; #: p<0.01 by one-way ANOVA.
(§1) (A, B) T4302 CD133+ cells were treated with 100 nM RO4929097 (GSI) and/or 100 nM tipifarnib (FTI) for 4 hours prior to 3 Gy radiation. (A) Cell growth on day 5 and (B) caspase 3/7 activation on day 3 were determined as described in FIG. 4. #: p<0.001 by one-way ANOVA, combo vs. single agents. (C) The effects of GSIs and FTI against growth of T4302 CD133− cells were determined as described in panel A. (D, E) T4302 CD133+ cells were treated with GSI, FTI, or a 1:1 mixture at different concentrations (ranging from 3000 nM to ˜0.5 nM, 1:3 dilution)±3 Gy radiation. Cell viability was determined at 5 days after treatment in comparison to vehicle-treated groups. […] (F) T4302 CD 133+ cells were treated by GSI±FTI with a 2-fold dilution. Neurospheres were countered on day 10, and normalized to the vehicle-treated group.

A further test concerns T4302 CD133− cells. The test is described as follows: Growth / survival of non-stem GBM cells. Conditions: day 5. As for the experimental part: as §1
Tumor cells are enzymatically dissociated from freshly collected subcutaneous xenograft tumors and cultured overnight before sorting. The CD133− and CD133+ fractions are separated either by magnetic sorting using the CD133 Microbead kit (Miltenyi Biotech), or labeled with APC-conjugated CD133 antibody (Miltenyi Biotech) and sorted by flow cytometry. CD133+ cells are maintained in neurobasal media supplemented with 2% B-27, 20 ng/ml EGF, and 20 ng/ml bFGF. […]

Another test deals with GBM 44. Kind of test: Growth inhibition at day 5, spheroid GBM culture. As for the experimental part: (§2) (A) Known genetic features of selected GBM samples. WT: wild type; Amp: amplification; vIII: EGFRvIII; ND: not determined. (B) Spheroid GBM cultures were derived from freshly collected subcutaneous tumors and cultured for 2 weeks in stem cell media to enrich stem cell-like cancer cells. SF7225 was maintained as a primary spheroid culture. Growth inhibition at day 5 after treatment was determined as described in FIG. 5. *: p<0.01 by Student's t-test and growth inhibition ≧30% vs. the corresponding vehicle-treated groups. #: p<0.01 and >30% growth inhibition vs. the radiation only groups.
(§3) Work is now extended to a set of subcutaneous GBM xenografts (GBM) established by Dr. Jann Sarkaria and colleagues at Mayo Clinic. These samples are known to have mutational status of EGFR, p53 and PTEN and different radiosensitivity (FIG. 8A) (69-71). Because the cancer stem cell identity of CD133+ of the Mayo Clinic samples has not been validated by functional assays, the present inventor used the neurosphere culture that is widely utilized as a surrogate of GSCs for its ability to enrich GSC-like population (72, 73). Tumor response to GSI, FTI and/or radiation was determined as growth inhibition on day 5 after treatment, with a greater than 30% cell number reduction was defined as positive response mimicking the RECIST criteria (FIG. 8B). […] Therefore, the present inventor will continuously expand the GBM panel and determine the genomic features of all samples with focus on prevalent GBM-associated aberrations. On the basis of this molecularly characterized tumor panel, the present inventor will start to explore the potential biomarkers that may predict tumor response to the combination therapy of radiation, GSI and FTI by experiments described in herein.

For another test, the system named is GBM43. Kind of test: Growth inhibition at day 5, spheroid GBM culture. The following applies: effects diminished after radiation. The method, then:
as §2, §3

For `CC(C)(C(=O)NCC(F)(F)C(F)(F)F)C(=O)N[C@@H]1C(=O)Nc2ccccc2-c2ccccc21` [RO4929097], in the test with T4302 CD133+ cells (absence of radiation), the “caspase 3/7 activation, in words” value was “without apparent activation of apoptosis”. The “increase of caspase 3/7 activity compared with the sham-treated group” value in the test on T4302 CD133+ cells (following 3-Gy radiation) is recorded as “approximately 2 fold”. Further, the “effect on growth of CD133− non-stem GBM cells” value in the test with T4302 CD133− cells was “largely insensitive”. The results for the “growth inhibition on day 5” value in the test on GBM 44 (0 Gy) and in the test with GBM 44 (3 Gy) were 48±3.2% and 65±3.3%, respectively. In addition, in the test on GBM43, the “tumor response (growth inhibition day 5), in words” value is “moderate response”.
